Earlier results as cited in patent US20090035370A1, “DOSAGE FORM AND METHOD OF USE” (DRUGTECH CORPORATION, priority 2007, published 2009).
Where two headings read alike, the source gives them in different places.

Legend:
[1] = administered orally
[2] = biological target: T1, D2 receptor (Homo sapiens, UniProt P14416); details: patients receiving 300-600 mg/day
[3] = biological target: T1, D2 receptor; details: PET
[4] = biological target: T1, D2 receptor

T1 sequence (P14416 whole entry): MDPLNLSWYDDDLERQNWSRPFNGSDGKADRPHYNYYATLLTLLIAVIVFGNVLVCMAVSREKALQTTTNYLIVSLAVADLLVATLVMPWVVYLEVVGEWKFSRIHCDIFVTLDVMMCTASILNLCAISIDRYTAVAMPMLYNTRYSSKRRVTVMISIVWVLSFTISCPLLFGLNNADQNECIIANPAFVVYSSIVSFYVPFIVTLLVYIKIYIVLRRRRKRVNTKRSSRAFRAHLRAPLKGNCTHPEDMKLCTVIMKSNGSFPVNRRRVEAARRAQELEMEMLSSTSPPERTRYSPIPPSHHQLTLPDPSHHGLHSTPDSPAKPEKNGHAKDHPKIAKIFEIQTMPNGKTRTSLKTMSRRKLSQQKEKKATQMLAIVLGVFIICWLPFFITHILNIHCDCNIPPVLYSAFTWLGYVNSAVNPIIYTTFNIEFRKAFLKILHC

## OCCOCCN1CCN(C2=Nc3ccccc3Sc3ccccc32)CC1 [Quetiapine]
[1]
  time to peak plasma level: ≤ 1.5 h
[2]; 12 hours after receiving a dose
  D2 occupancy: less than 20%
[2]; at 2 hours
  D2 occupancy: ~60%
[3]; 2 to 3 hours after a single dose
  D2 occupancy: 58-62%
[3]; 12 hours after the last dose
  D2 occupancy: 0-27%
[4]; 2-3 hours after a dose
  D2 occupancy: 58-64%
[4]; by the end of a 12-hour dosing interval
  D2 occupancy: 0-27%
Kapur et al. 2000
  antipsychotic efficacy: effective antipsychotic
Patients with a first episode of schizophrenia, single daily dose
  response to treatment: responded to treatment
